System: cells of rat pituitary glands
Experiment: in vitro GH release, rat pituitary cell monolayer culture bioassay (ir GH by radioimmunoassay)
Assay type: cell-based
Settings: for biological potency (additional testing): compared with PGRF (1-40); for GH-releasing activity: peptides isolated from human islet cell tumor
Procedure: To determine the effectiveness of the peptides to promote the release of growth hormone, in vitro assays are carried out using synthetic PGRF (1-40) of Example II in side-by-side comparison with equimolar concentrations of the extracted and purified native PGRF (1-40) and of a GRF Reference Standard having a known effectiveness to promote the release of growth hormone from pituitary cells. The GRF Reference standard is described and defined in Brazeau, et al., Endocrinology, Vol. 110, A538(1982) and is an amount of a preparation of rat hypothalamic origin that produces a half-maximal response in terms of GH release in a pituitary cell monolayer bioassay. Cultures are used which include cells of rat pituitary glands removed some four to five days previously. Both cultures of a defined standard medium and cultures which are considered optimal for the secretion of growth hormone are used for the comparative testing, in the general manner described in Brazeau, et al. Regulatory Peptides, 1, 255, 1981. Incubation with the substance to be tested is carried out for 3 to 4 hours, and aliquots of the culture medium are removed and processed to measure their contents in inmunoreactive GH(ir GH) by a well-characterized radioimmunoassay.
The in vitro assays described in Example VII are repeated using Native PGRF(1-40) and Native PGRF(1-44) and the results are set forth in following Table III: […]

SMILES: CC[C@H](C)[C@H](NC(=O)[C@H](C)NC(=O)[C@H](CC(=O)O)NC(=O)[C@H](C)NC(=O)[C@@H](N)Cc1ccc(O)cc1)C(=O)N[C@@H](Cc1ccccc1)C(=O)N[C@H](C(=O)N[C@@H](CC(N)=O)C(=O)N[C@@H](CO)C(=O)N[C@@H](Cc1ccc(O)cc1)C(=O)N[C@@H](CCCNC(=N)N)C(=O)N[C@@H](CCCCN)C(=O)N[C@H](C(=O)N[C@@H](CC(C)C)C(=O)NCC(=O)N[C@@H](CCC(N)=O)C(=O)N[C@@H](CC(C)C)C(=O)N[C@@H](CO)C(=O)N[C@@H](C)C(=O)N[C@@H](CCCNC(=N)N)C(=O)N[C@@H](CCCCN)C(=O)N[C@@H](CC(C)C)C(=O)N[C@@H](CC(C)C)C(=O)N[C@@H](CCC(N)=O)C(=O)N[C@@H](CC(=O)O)C(=O)N[C@H](C(=O)N[C@@H](CCSC)C(=O)N[C@@H](CO)C(=O)N[C@@H](CCCNC(=N)N)C(=O)N[C@@H](CCC(N)=O)C(=O)N[C@@H](CCC(N)=O)C(=O)NCC(=O)N[C@@H](CCC(=O)O)C(=O)N[C@@H](CO)C(=O)N[C@@H](CC(N)=O)C(=O)N[C@@H](CCC(N)=O)C(=O)N[C@@H](CCC(=O)O)C(=O)O)[C@@H](C)CC)C(C)C)[C@@H](C)O [Example VI, PGRF (1-37)-free acid]
- biological potency (additional testing): very substantial biological potency

SMILES: CC[C@H](C)[C@H](NC(=O)[C@H](C)NC(=O)[C@H](CC(=O)O)NC(=O)[C@H](C)NC(=O)[C@@H](N)Cc1ccc(O)cc1)C(=O)N[C@@H](Cc1ccccc1)C(=O)N[C@H](C(=O)N[C@@H](CC(N)=O)C(=O)N[C@@H](CO)C(=O)N[C@@H](Cc1ccc(O)cc1)C(=O)N[C@@H](CCCNC(=N)N)C(=O)N[C@@H](CCCCN)C(=O)N[C@H](C(=O)N[C@@H](CC(C)C)C(=O)NCC(=O)N[C@@H](CCC(N)=O)C(=O)N[C@@H](CC(C)C)C(=O)N[C@@H](CO)C(=O)N[C@@H](C)C(=O)N[C@@H](CCCNC(=N)N)C(=O)N[C@@H](CCCCN)C(=O)N[C@@H](CC(C)C)C(=O)N[C@@H](CC(C)C)C(=O)N[C@@H](CCC(N)=O)C(=O)N[C@@H](CC(=O)O)C(=O)N[C@H](C(=O)N[C@@H](CCSC)C(=O)N[C@@H](CO)C(=O)N[C@@H](CCCNC(=N)N)C(=O)N[C@@H](CCC(N)=O)C(=O)N[C@@H](CCC(N)=O)C(=O)NCC(=O)N[C@@H](CCC(=O)O)C(=O)N[C@@H](CO)C(=O)N[C@@H](CC(N)=O)C(=O)N[C@@H](CCC(N)=O)C(=O)N[C@@H](CCC(=O)O)C(=O)N[C@@H](CCCNC(=N)N)C(=O)NCC(=O)N[C@@H](C)C(=O)N[C@@H](CCCNC(=N)N)C(=O)N[C@@H](C)C(=O)N[C@@H](CCCNC(=N)N)C(=O)N[C@@H](CC(C)C)C(=O)O)[C@@H](C)CC)C(C)C)[C@@H](C)O [synthetic PGRF(1-44)-free acid, PGRF(1-44) free acid]
- potency compared with native PGRF(1-44) (further testing): somewhat less potency than native PGRF(1-44)

SMILES: CC[C@H](C)[C@H](NC(=O)[C@H](C)NC(=O)[C@H](CC(=O)O)NC(=O)[C@H](C)NC(=O)[C@@H](N)Cc1ccc(O)cc1)C(=O)N[C@@H](Cc1ccccc1)C(=O)N[C@H](C(=O)N[C@@H](CC(N)=O)C(=O)N[C@@H](CO)C(=O)N[C@@H](Cc1ccc(O)cc1)C(=O)N[C@@H](CCCNC(=N)N)C(=O)N[C@@H](CCCCN)C(=O)N[C@H](C(=O)N[C@@H](CC(C)C)C(=O)NCC(=O)N[C@@H](CCC(N)=O)C(=O)N[C@@H](CC(C)C)C(=O)N[C@@H](CO)C(=O)N[C@@H](C)C(=O)N[C@@H](CCCNC(=N)N)C(=O)N[C@@H](CCCCN)C(=O)N[C@@H](CC(C)C)C(=O)N[C@@H](CC(C)C)C(=O)N[C@@H](CCC(N)=O)C(=O)N[C@@H](CC(=O)O)C(=O)N[C@H](C(=O)N[C@@H](CCSC)C(=O)N[C@@H](CO)C(=O)N[C@@H](CCCNC(=N)N)C(=O)N[C@@H](CCC(N)=O)C(=O)N[C@@H](CCC(N)=O)C(=O)NCC(=O)N[C@@H](CCC(=O)O)C(=O)N[C@@H](CO)C(=O)N[C@@H](CC(N)=O)C(=O)N[C@@H](CCC(N)=O)C(=O)N[C@@H](CCC(=O)O)C(=O)N[C@@H](CCCNC(=N)N)C(=O)NCC(=O)N[C@@H](C)C(=O)O)[C@@H](C)CC)C(C)C)[C@@H](C)O [Native PGRF (1-40)]
- GH secretion in vitro % of controls (Table I, 12.5 femtomoles): 234 ± 17 % of controls
- GH secretion in vitro % of controls (Table I, 25 fmoles): 351 ± 7 % of controls
- GH secretion in vitro % of controls (Table I, 50 fmoles): 528 ± 16 % of controls
- GH secretion in vitro % of controls (Table I, 100 fmoles): 720 ± 32 % of controls
- GH secretion in vitro % of controls (Table I, 200 fmoles): 748 ± 7 % of controls
- GH secretion in vitro % of controls (Table III, 6.3 femtomoles): 198 ± 5.9 % of controls
- GH secretion in vitro % of controls (Table III, 12.5 femtomoles): 270 ± 2.4 % of controls
- GH secretion in vitro % of controls (Table III, 25.0 femtomoles): 348 ± 3.4 % of controls
- GH secretion in vitro % of controls (Table III, 50.0 femtomoles): 466 ± 0.9 % of controls
- GH secretion in vitro % of controls (Table III, 100.0 femtomoles): 570 ± 17 % of controls
- GH secretion in vitro % of controls (Table III, 200.0 femtomoles): 579 ± 2.1 % of controls
- GH secretion in vitro % of controls (Table III, 400.0 femtomoles): 588 ± 10 % of controls
- GH-releasing activity: exhibit GH-releasing activity

SMILES: CC[C@H](C)[C@H](NC(=O)[C@H](C)NC(=O)[C@H](CC(=O)O)NC(=O)[C@H](C)NC(=O)[C@@H](N)Cc1ccc(O)cc1)C(=O)N[C@@H](Cc1ccccc1)C(=O)N[C@H](C(=O)N[C@@H](CC(N)=O)C(=O)N[C@@H](CO)C(=O)N[C@@H](Cc1ccc(O)cc1)C(=O)N[C@@H](CCCNC(=N)N)C(=O)N[C@@H](CCCCN)C(=O)N[C@H](C(=O)N[C@@H](CC(C)C)C(=O)NCC(=O)N[C@@H](CCC(N)=O)C(=O)N[C@@H](CC(C)C)C(=O)N[C@@H](CO)C(=O)N[C@@H](C)C(=O)N[C@@H](CCCNC(=N)N)C(=O)N[C@@H](CCCCN)C(=O)N[C@@H](CC(C)C)C(=O)N[C@@H](CC(C)C)C(=O)N[C@@H](CCC(N)=O)C(=O)N[C@@H](CC(=O)O)C(=O)N[C@H](C(=O)N[C@@H](CCSC)C(=O)N[C@@H](CO)C(=O)N[C@@H](CCCNC(=N)N)C(=O)N[C@@H](CCC(N)=O)C(=O)N[C@@H](CCC(N)=O)C(=O)NCC(=O)N[C@@H](CCC(=O)O)C(=O)N[C@@H](CO)C(=O)N[C@@H](CC(N)=O)C(=O)N[C@@H](CCC(N)=O)C(=O)N[C@@H](CCC(=O)O)C(=O)N[C@@H](CCCNC(=N)N)C(=O)NCC(=O)N[C@@H](C)C(N)=O)[C@@H](C)CC)C(C)C)[C@@H](C)O [Example V, PGRF (1-40)-amide]
- biological potency (additional testing): substantially twice the biological potency of the synthetic peptide tested in Example VII

SMILES: CC[C@H](C)[C@H](NC(=O)[C@H](C)NC(=O)[C@H](CC(=O)O)NC(=O)[C@H](C)NC(=O)[C@@H](N)Cc1ccc(O)cc1)C(=O)N[C@@H](Cc1ccccc1)C(=O)N[C@H](C(=O)N[C@@H](CC(N)=O)C(=O)N[C@@H](CO)C(=O)N[C@@H](Cc1ccc(O)cc1)C(=O)N[C@@H](CCCNC(=N)N)C(=O)N[C@@H](CCCCN)C(=O)N[C@H](C(=O)N[C@@H](CC(C)C)C(=O)NCC(=O)N[C@@H](CCC(N)=O)C(=O)N[C@@H](CC(C)C)C(=O)N[C@@H](CO)C(=O)N[C@@H](C)C(=O)N[C@@H](CCCNC(=N)N)C(=O)N[C@@H](CCCCN)C(=O)N[C@@H](CC(C)C)C(=O)N[C@@H](CC(C)C)C(=O)N[C@@H](CCC(N)=O)C(=O)N[C@@H](CC(=O)O)C(=O)N[C@H](C(=O)N[C@@H](CCSC)C(=O)N[C@@H](CO)C(=O)N[C@@H](CCCNC(=N)N)C(=O)N[C@@H](CCC(N)=O)C(=O)N[C@@H](CCC(N)=O)C(=O)NCC(=O)N[C@@H](CCC(=O)O)C(=O)N[C@@H](C)C(=O)N[C@@H](CC(N)=O)C(=O)N[C@@H](CCC(N)=O)C(=O)N[C@@H](CCC(=O)O)C(=O)N[C@@H](CO)C(=O)NCC(=O)N[C@@H](CCCNC(=N)N)C(=O)O)[C@@H](C)CC)C(C)C)[C@@H](C)O [Example IV]
- biological potency (additional testing): substantially the same biological potency as the native PGRF (1-40)

SMILES: CC[C@H](C)[C@H](NC(=O)[C@H](C)NC(=O)[C@H](CC(=O)O)NC(=O)[C@H](C)NC(=O)[C@@H](N)Cc1ccc(O)cc1)C(=O)N[C@@H](Cc1ccccc1)C(=O)N[C@H](C(=O)N[C@@H](CC(N)=O)C(=O)N[C@@H](CO)C(=O)N[C@@H](Cc1ccc(O)cc1)C(=O)N[C@@H](CCCNC(=N)N)C(=O)N[C@@H](CCCCN)C(=O)N[C@H](C(=O)N[C@@H](CC(C)C)C(=O)NCC(=O)N[C@@H](CCC(N)=O)C(=O)N[C@@H](CC(C)C)C(=O)N[C@@H](CO)C(=O)N[C@@H](C)C(=O)N[C@@H](CCCNC(=N)N)C(=O)N[C@@H](CCCCN)C(=O)N[C@@H](CC(C)C)C(=O)N[C@@H](CC(C)C)C(=O)N[C@@H](CCC(N)=O)C(=O)N[C@@H](CC(=O)O)C(=O)N[C@H](C(=O)N[C@@H](CCSC)C(=O)N[C@@H](CO)C(=O)N[C@@H](CCCNC(=N)N)C(=O)N[C@@H](CCC(N)=O)C(=O)N[C@@H](CCC(N)=O)C(=O)NCC(=O)N[C@@H](CCC(=O)O)C(=O)N[C@@H](CO)C(=O)N[C@@H](CC(N)=O)C(=O)N[C@@H](CCC(N)=O)C(=O)N[C@@H](CCC(=O)O)C(=O)O)[C@@H](C)CC)C(C)C)[C@@H](C)O [PGRF(1-37) free acid]
- GH-releasing activity: exhibit GH-releasing activity
